Experiment [1] is described as follows: viability loss in THP-1 monocytes – THP-1 cells, cytotoxicity control for Vif-APOBEC3G degradation inhibitor project, dose response (AID 1117359). In kind it is functional. The note with it: THP-1.
Experiment [2] addresses T1, Low molecular weight phosphotyrosine protein phosphatase (Homo sapiens, UniProt P24666).
T1 sequence (P24666 whole entry): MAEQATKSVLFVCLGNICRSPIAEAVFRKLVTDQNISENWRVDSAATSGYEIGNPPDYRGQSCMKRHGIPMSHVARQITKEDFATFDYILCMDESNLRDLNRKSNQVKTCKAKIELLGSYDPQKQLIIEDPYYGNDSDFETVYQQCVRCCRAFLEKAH
In kind it is functional. Particulars: read-out: IC50_Mean.

Experiment [3] concerns the target T2, Short transient receptor potential channel 4 (Mus musculus, UniProt Q9QUQ5).
T2 sequence (Q9QUQ5 whole entry): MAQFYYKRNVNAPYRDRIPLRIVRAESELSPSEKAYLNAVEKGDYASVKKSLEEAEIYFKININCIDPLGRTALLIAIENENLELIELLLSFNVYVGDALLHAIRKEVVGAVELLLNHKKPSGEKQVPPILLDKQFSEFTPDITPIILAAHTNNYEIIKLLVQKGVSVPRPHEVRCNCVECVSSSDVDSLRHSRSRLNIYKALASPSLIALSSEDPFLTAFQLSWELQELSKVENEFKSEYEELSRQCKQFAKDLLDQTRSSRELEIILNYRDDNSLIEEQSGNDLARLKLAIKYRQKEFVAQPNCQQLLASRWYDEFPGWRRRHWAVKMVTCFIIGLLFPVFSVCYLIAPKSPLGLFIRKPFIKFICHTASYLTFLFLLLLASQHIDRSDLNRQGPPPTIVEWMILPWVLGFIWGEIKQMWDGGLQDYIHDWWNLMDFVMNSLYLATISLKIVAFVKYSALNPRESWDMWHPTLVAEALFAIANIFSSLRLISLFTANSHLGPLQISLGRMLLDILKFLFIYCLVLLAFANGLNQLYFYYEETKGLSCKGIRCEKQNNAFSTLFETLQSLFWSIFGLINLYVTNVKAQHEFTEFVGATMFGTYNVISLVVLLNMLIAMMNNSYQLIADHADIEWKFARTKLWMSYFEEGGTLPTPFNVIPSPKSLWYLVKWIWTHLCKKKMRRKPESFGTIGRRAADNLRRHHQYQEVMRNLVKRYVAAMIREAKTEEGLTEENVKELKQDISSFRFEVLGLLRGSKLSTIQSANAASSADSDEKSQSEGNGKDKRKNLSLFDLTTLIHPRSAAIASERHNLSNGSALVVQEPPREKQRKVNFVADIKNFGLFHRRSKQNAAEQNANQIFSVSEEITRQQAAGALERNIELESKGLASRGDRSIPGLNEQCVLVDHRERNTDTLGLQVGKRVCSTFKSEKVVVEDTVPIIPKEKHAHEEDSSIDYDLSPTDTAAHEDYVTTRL
Put plainly: calcium entry via TRPC4 opening agents – cell-based, HEK293 TRPC4/mu-opioid, Fluo-4 calcium, dose response (AID 434937). In kind it is functional.

The nature of experiment [4]: viability of uninfected HEp-2 cells – cell-based, HTS, cytotoxicity control for RSV inhibitor project, dose response (AID 2410). In kind it is functional. The note with it: human respiratory syncytial virus.
Experiment [5] relates to Vero. As to the kind of experiment: cells. In kind it is functional, cell-based. Particulars: Chlorocebus sabaeus.
Experiment [6] concerns the target Ras and Rab interactor 1/Tyrosine-protein kinase ABL1 (Homo sapiens, UniProt P00519+Q13671). In kind it is functional.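 Further: biochemical TR-FRET dose-response test measuring inhibition of binding between Rin1 and Abl proteins.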
The target of experiment [7] is Glucose-6-phosphate 1-dehydrogenase (Homo sapiens, UniProt P11413). As to the kind of experiment: inhibition of Homo sapiens G6PD, dose series – biochemical, fluorescence, selectivity assay for P. falciparum G6PD inhibitor project, dose response (AID 504792). In kind it is functional.
The target of experiment [8] is Nucleotide-binding oligomerization domain-containing protein 2 (Homo sapiens, UniProt Q9HC29). Put plainly: inhibition of NOD2-driven NF-kB reporter – cell-based, luminescence, uHTS, HEK293 (AID 1566). In kind it is functional.
Experiment [9] deals with T3, Heat shock factor protein 1 (Mus musculus, UniProt P38532).
T3 sequence (P38532 whole entry): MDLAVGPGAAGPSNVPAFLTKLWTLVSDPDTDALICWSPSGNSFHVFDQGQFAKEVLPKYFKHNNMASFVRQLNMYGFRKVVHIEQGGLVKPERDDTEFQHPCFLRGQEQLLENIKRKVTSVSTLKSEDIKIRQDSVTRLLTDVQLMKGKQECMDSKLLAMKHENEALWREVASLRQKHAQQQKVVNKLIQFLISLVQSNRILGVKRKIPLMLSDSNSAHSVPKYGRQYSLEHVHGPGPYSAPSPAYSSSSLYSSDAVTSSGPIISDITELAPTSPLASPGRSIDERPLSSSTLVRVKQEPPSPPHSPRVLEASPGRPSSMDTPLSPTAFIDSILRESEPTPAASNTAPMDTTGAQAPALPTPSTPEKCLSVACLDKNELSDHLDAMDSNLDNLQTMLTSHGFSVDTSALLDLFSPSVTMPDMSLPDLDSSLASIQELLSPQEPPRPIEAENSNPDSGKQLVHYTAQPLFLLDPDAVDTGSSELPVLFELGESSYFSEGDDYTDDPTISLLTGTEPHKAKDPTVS
Put plainly: enhancement of HSF1-driven luciferase signal – cell-based, NIH3T3, luminescence, dose retest, confirmation (AID 435004).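 Further: stress induced by proteasome inhibitor MG132 added 30 min after compound; luciferase reporter driven by HSF1 response element in NIH3T3 cells; actives raise luminescence as potentiators of the MG132 stress response.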 In kind it is functional.

Experiment [10] has as its system HEK293. Put plainly: inhibition of NOD1-driven NF-kB reporter – cell-based, luminescence, uHTS, primary screen (AID 1578). The note with it: Homo sapiens. In kind it is functional.
Experiment [11] deals with HEK293. As to the kind of experiment: cells. In kind it is functional, cell-based. Particulars: Homo sapiens.
Experiment [12] deals with HEK293. Put plainly: cells. In kind it is functional, cell-based. Particulars: Homo sapiens. This is another data set of the same source.
Experiment [13] relates to HEK293. Put plainly: cells. The note with it: Homo sapiens. In kind it is functional, cell-based. The source holds these as a separate data set.
The test system of experiment [14] is HEK293. Put plainly: NOD2 signaling inhibitors in MDP-stimulated cells, cell-based, uHTS, luminescence (AID 2001). In kind it is functional. Particulars: Homo sapiens.
Experiment [15] concerns the target FAD-linked sulfhydryl oxidase ALR (Homo sapiens, UniProt P55789). As to the kind of experiment: ALR-catalysed DTT oxidation blockers – biochemical, H2O2 detection, luminescence, cherry-pick, dose response (AID 493248).
The nature of experiment [16]: NIH-3T3 fibroblast cytotoxicity, dose response, cytotoxicity control, cell-based, fluorescence, Alamar Blue, secondary assay (AID 2327).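 Further: NIH-3T3 mouse fibroblasts cultured with fluconazole at 8 µg/mL.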 In kind it is functional.
The nature of experiment [17]: Luminescence Cell-Based Dose Retest to Confirm Inhibitors of Cancer Stem Cells. [Related pubchem assays (depositor defined):AID2717, AID2721]. In kind it is functional. Particulars: Homo sapiens.
Experiment [18] is described as follows: fluconazole-exposed Candida albicans growth modulators – fluorescence, retest, confirmation (AID 2467). In kind it is functional, cell-based.
Experiment [19] concerns Vero. Put plainly: cells. Particulars: Chlorocebus sabaeus. In kind it is functional.
Experiment [20] can be described thus: P. falciparum Dd2 growth inhibitors, dose response, SYBR Green, cherry-picked samples (AID 1159567). In kind it is functional, cell-based.
Experiment [21] can be described thus: toxicity to human hepatoma HepG2 cells – cell-based, cherry-picked samples, cytotoxicity control, dose response (AID 1159577). In kind it is functional.

Activity calls are given as the source filed them.
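Wherever IC50 Mean is given: Dose-response confirmation assay measuring inhibition of LMPTP enzyme activity by fluorescence intensity read-out.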

Sequence of Ras and Rab interactor 1/Tyrosine-protein kinase ABL1 (P00519 whole entry): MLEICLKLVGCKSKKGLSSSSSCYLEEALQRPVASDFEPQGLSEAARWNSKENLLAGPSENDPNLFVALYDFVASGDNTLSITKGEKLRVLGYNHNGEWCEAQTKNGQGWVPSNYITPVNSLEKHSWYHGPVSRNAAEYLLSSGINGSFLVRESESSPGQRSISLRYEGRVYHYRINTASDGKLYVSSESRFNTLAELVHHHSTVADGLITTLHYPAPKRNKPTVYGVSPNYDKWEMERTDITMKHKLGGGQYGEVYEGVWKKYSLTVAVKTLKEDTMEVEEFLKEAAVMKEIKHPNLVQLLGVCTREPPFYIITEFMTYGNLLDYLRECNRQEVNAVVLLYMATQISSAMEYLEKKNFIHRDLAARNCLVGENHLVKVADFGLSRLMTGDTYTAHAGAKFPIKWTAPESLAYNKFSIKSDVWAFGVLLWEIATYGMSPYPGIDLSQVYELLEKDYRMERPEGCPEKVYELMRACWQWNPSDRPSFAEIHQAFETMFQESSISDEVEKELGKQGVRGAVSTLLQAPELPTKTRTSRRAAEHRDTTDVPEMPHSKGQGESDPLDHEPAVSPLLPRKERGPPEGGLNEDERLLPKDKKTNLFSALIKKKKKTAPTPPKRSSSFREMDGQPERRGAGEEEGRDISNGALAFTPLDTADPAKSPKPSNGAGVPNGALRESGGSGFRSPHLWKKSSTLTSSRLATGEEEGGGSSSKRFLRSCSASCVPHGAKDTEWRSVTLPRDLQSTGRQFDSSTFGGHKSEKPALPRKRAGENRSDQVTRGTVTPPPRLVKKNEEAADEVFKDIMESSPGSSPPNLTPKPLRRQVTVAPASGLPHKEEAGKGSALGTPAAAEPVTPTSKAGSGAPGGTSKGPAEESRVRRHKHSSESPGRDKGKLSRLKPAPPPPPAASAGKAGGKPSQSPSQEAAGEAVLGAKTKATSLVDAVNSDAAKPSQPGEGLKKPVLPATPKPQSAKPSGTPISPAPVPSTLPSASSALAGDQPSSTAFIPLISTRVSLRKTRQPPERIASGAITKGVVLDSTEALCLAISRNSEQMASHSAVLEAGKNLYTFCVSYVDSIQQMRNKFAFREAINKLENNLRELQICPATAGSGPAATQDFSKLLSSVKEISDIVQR
Sequence of Ras and Rab interactor 1/Tyrosine-protein kinase ABL1 (Q13671 whole entry): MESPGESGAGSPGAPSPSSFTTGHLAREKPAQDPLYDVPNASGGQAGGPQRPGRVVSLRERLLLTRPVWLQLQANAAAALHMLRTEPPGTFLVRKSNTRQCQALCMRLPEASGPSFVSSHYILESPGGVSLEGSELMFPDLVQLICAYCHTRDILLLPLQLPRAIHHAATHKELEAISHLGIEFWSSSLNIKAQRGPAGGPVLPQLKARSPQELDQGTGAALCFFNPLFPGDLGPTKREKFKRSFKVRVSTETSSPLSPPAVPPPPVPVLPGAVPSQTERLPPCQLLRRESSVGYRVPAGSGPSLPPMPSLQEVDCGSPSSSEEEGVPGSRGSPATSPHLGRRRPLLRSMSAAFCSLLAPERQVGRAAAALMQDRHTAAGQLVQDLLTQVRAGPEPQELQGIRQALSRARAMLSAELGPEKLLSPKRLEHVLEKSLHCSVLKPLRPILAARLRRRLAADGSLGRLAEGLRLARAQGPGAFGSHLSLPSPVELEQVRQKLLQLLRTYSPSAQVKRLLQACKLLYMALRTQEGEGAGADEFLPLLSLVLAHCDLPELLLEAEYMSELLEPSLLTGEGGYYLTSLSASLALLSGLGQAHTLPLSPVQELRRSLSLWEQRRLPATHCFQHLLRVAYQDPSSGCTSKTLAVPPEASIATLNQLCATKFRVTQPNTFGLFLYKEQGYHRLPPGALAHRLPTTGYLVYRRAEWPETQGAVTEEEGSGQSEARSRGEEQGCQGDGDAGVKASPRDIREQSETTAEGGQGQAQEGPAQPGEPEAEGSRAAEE
Sequence of Glucose-6-phosphate 1-dehydrogenase (P11413 whole entry, the tested form may be a part): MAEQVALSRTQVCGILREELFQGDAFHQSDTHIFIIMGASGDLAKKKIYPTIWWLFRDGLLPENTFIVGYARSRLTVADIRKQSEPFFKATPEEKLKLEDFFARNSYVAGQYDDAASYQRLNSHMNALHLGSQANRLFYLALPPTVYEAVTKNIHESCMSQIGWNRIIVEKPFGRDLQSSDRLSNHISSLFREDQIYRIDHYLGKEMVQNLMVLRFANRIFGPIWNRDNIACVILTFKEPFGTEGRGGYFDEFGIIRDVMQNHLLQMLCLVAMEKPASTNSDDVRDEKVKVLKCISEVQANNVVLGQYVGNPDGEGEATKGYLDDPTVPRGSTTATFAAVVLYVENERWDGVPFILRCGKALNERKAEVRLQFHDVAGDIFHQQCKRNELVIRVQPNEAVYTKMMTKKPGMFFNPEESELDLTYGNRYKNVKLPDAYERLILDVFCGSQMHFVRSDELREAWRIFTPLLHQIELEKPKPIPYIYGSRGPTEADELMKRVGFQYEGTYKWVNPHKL
Sequence of FAD-linked sulfhydryl oxidase ALR (P55789 whole entry): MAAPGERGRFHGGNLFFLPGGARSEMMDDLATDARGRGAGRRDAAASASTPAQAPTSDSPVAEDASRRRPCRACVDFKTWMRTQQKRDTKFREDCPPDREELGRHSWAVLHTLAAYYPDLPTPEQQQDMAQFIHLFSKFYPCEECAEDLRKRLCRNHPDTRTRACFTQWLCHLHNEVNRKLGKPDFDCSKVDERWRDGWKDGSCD
Sequence of Nucleotide-binding oligomerization domain-containing protein 2 (Q9HC29 whole entry, the tested form may be a part): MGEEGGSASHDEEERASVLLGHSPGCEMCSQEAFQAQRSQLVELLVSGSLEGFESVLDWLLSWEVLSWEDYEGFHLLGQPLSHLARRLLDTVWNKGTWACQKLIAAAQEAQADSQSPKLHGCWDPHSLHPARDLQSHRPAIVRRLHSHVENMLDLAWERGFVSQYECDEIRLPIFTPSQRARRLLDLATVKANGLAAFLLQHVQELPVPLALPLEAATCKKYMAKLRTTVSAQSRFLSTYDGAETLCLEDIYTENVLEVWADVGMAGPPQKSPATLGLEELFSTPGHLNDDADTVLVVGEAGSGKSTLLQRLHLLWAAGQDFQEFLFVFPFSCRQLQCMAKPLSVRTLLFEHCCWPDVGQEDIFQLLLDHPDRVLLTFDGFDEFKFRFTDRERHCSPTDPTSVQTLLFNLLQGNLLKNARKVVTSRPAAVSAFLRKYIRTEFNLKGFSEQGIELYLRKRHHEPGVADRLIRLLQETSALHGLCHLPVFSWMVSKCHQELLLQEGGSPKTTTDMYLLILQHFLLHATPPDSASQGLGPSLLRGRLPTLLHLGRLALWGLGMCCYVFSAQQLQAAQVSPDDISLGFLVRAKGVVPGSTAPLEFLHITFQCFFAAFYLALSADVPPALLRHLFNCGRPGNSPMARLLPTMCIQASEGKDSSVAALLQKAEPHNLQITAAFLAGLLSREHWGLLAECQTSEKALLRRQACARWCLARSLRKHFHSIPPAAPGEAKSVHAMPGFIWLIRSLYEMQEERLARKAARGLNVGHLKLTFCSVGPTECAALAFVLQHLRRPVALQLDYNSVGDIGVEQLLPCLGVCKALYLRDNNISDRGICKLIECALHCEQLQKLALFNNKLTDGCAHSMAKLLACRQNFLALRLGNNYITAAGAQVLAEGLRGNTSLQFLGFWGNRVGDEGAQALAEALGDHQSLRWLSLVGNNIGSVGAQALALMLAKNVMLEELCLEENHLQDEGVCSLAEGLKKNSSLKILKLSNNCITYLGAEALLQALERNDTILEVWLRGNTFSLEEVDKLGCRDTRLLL

As for `Cc1cc(C(=O)CCl)c(C)n1-c1c(C)n(C)n(-c2ccccc2)c1=O`, in experiment [1], the CC50 is > 40 µM (active).
For the molecule `NC1=NC2(CCN(Cc3ccccc3)CC2)n2c(nc3ccccc32)N1`, the IC50 in [2] is 27.1 µM (inactive). For the same molecule, the EC50 in experiment [3] is 0.299 µM (active).
For the molecule `Cc1sc(NC(=S)NC(=O)c2ccc(C(C)(C)C)cc2)c(C#N)c1C`, the CC50 in experiment [4] was 46.8 µM (active). Moreover, the IC50 in the experiment with Vero [5] is 13.9 µM (active).
On to `COC(=O)c1ccc(CSc2nnc(CNC(=O)COc3ccc(Cl)cc3)o2)o1`, for which the IC50 in [6] is 21.4 µM (inactive).
Turning to `CC1(OC(=O)C2CCCC2)C(=O)C=C2C=C(c3ccsc3)N(CC3CC3)C=C2C1=O` (centres undefined), the IC50 in [7] was 64.3 µM (inactive).
Turning to `Cc1ccc(C(=O)NC(=C(Cl)Cl)S(=O)(=O)c2ccc(Cl)cc2)cc1`, the EC50 is > 20 µM (inactive) in [8], 7.82 µM (active) in experiment [9] and 2.2 µM (active) in the experiment with HEK293 [10]. The IC50 is > 20 µM (inactive) in the experiment on HEK293 [11], > 20 µM (inactive) in the experiment on HEK293 [12], 3.42 µM (active) with HEK293 [13] and 5.03 µM (inactive) with HEK293 [14].
Turning to `CC1(C)CN(c2ccccc2)N(C(=O)c2ccc(C#N)cc2)C1=O`, the values for the AC50 in experiment [15] and in experiment [17] were 1.72 µM (active) and 3.56 µM (active), respectively. For the same molecule, the IC50 in experiment [7] was > 80 µM (inactive). Also, the concentration giving a half-maximal response (EC50) was 4.88 µM (active) in experiment [16] and > 38 µM (not active) in [18].
As for `Cc1c(CCO)c(=O)[nH]n1C(=O)c1c(F)cccc1F`, the CC50 with Vero [19] is > 25 µM (active). Moreover, the IC50 in the experiment with Vero [5] is 15.4 µM (active).
Take `CCOc1ccccc1Nc1nnc(SC(C)C(=O)Nc2nc(-c3ccccc3)cs2)s1` (centres undefined): the IC50 in the experiment on Vero [5] is > 12.5 µM (active).
In the case of `CCOc1ccc(N(CC(=O)N2CCC(Cc3ccccc3)CC2)S(C)(=O)=O)cc1`, the half-maximal cytotoxic concentration (CC50) in [1] was > 40 µM (active).
For `COc1ccc(C2c3c(nc[nH]c3=O)Oc3nc[nH]c(=O)c32)cc1`, in experiment [6], the IC50 is 2.87 µM (active).
Consider `CN(C(=O)CCN1C(=O)/C(=C/c2ccccc2)SC1=S)C1CCS(=O)(=O)C1` (centres undefined), for which, in the experiment with Vero [19], the 50% cytotoxic concentration (CC50) is 21.2 µM (active).
For `CN(C(=O)c1ccc(NC(=O)Cc2cccc(NC(=O)C3CCN(C(=O)c4ccccc4)CC3)c2)cc1)C1CC1`, the IC50 in experiment [6] was 15.3 µM (inactive).
Turning to `CC(C)NC(=O)N1CCCCN2[C@H](CO)[C@@H](c3ccc(C#C[C@@H](C)O)cc3)[C@@H]2C1`, the AC50 is 27.8 µM (active) in [20] and > 39 µM (inactive) in experiment [21].
The like results for `Cc1cccc(-c2ccc([C@@H]3[C@@H](CO)N4CCCCN(CCC(F)(F)F)C[C@H]34)cc2)c1` were, in that order, 0.801 µM (active) and 8.79 µM (active).
The corresponding values for `O=C(C[C@H]1C[C@@H]2c3cc(NC(=O)c4cccnc4)ccc3O[C@@H]2[C@@H](CO)O1)NCc1ccc(Oc2ccccc2)cc1` are 13.7 µM (active) and > 39 µM (inactive).
The corresponding values for `COc1ccc(S(=O)(=O)N2CCC3(CC2)CN(C(=O)CN(C)C)[C@@H](CO)c2c3c3ccc(OC)cc3n2C)cc1` are 2.53 µM (active) and 18.8 µM (active).

The record behind these values is ChEMBL document CHEMBL1201862, “PubChem BioAssay data set” (2004).
